Columns and labels:
children and adolescents [1] = assay: Adverse effects on Pediatric Adverse Event Rating Scale (PAERS), maximal severity; format: in vivo, human; settings: n = 134 (4 missing); for patients with PAERS max. severity 'none' (no adverse effects): FLX 10–40 mg/day
Method: On the day of blood collection, treatment responses were measured using the Clinical Global Impression (CGI) Scale (Improvement, CGI-I), which clinicians were instructed to rate solely based on the effects of the drug. […] This instrument was specifically designed to quantify the severity of 56 signs of adverse events occurring in pediatric patients under treatment with a psychotropic drug. The 56 items were rated on a Likert scale with 'none', 'slight', 'moderate', 'severe', and 'extremely severe' responses. The maximal severity on any of the items was considered in this study. […] Additionally, indications for the TDM measurement, detailed information on concomitant medications, nicotine use, weight, and height were also recorded. […] All statistical analyses were performed using R (R Foundation for Statistical Computing) version 4.1.1. The alpha level for all analyses was set to 0.05. To maximize the comparability of the conclusions from the dataset generated in this study, the main analyses were performed with both the last valid timepoint, as in previous relevant studies, and with all the valid timepoints, as detailed in the next paragraph. […] As not all the assumptions were met by the original data, a square-root transformation was applied to the outcome variables. In addition to the simple linear regressions, multiple linear regressions were performed with four additional hypothesized predictors: age (years), sex (male/female), body weight (kg), and smoking status (yes/no). The variance inflation factor (VIF) was evaluated as a measure of multicollinearity. Both regressions were compared based upon model fit. Second, proportional odds models using the clm (cumulative link models) function in the 'ordinal' R package were fitted to examine the serum concentrations as predictors of clinical effects (measured by CGI-I) and adverse effects (measured by PAERS-maximal severity). As there was only a single 'very severe' PAERS response, 'very severe' and 'severe' responses were pooled together. The analyses were repeated with an extended set of hypothesized predictors. For CGI-I, these were age, sex, psychotropic co-medication (i.e., antipsychotic and antidepressant drug), and diagnostic comorbidity (i.e., a single diagnosis versus multiple diagnoses). For PAERS, the predictors were age, sex, and psychotropic co-medication. The proportional odds assumptions in these statistics were verified with likelihood ratio tests using the nominal_test and scale_test functions, while model convergence was tested with the convergence function. […] The clmm (cumulative link mixed models) function from the 'ordinal' package was used to test the impact of metabolite level on clinical and adverse effects with CGI-I and […] […]

[2] = postmortem studies and case reports; cited from earlier work
CYP2D6 = settings: cited from earlier work
[3] = cited from earlier work
children and adolescents [4] = assay: Treatment response on Clinical Global Impression-Improvement (CGI-I); format: in vivo, human
Method: On the day of blood collection, treatment responses were measured using the Clinical Global Impression (CGI) Scale (Improvement, CGI-I), which clinicians were instructed to rate solely based on the effects of the drug. […] This instrument was specifically designed to quantify the severity of 56 signs of adverse events occurring in pediatric patients under treatment with a psychotropic drug. The 56 items were rated on a Likert scale with 'none', 'slight', 'moderate', 'severe', and 'extremely severe' responses. The maximal severity on any of the items was considered in this study. […] Additionally, indications for the TDM measurement, detailed information on concomitant medications, nicotine use, weight, and height were also recorded. […] All statistical analyses were performed using R (R Foundation for Statistical Computing) version 4.1.1. The alpha level for all analyses was set to 0.05. To maximize the comparability of the conclusions from the dataset generated in this study, the main analyses were performed with both the last valid timepoint, as in previous relevant studies, and with all the valid timepoints, as detailed in the next paragraph. […] In addition to the simple linear regressions, multiple linear regressions were performed with four additional hypothesized predictors: age (years), sex (male/female), body weight (kg), and smoking status (yes/no). The variance inflation factor (VIF) was evaluated as a measure of multicollinearity. Both regressions were compared based upon model fit. Second, proportional odds models using the clm (cumulative link models) function in the 'ordinal' R package were fitted to examine the serum concentrations as predictors of clinical effects (measured by CGI-I) and adverse effects (measured by PAERS-maximal severity). […] The analyses were repeated with an extended set of hypothesized predictors. For CGI-I, these were age, sex, psychotropic co-medication (i.e., antipsychotic and antidepressant drug), and diagnostic comorbidity (i.e., a single diagnosis versus multiple diagnoses). For PAERS, the predictors were age, sex, and psychotropic co-medication. The proportional odds assumptions in these statistics were verified with likelihood ratio tests using the nominal_test and scale_test functions, while model convergence was tested with the convergence function. […] The clmm (cumulative link mixed models) function from the 'ordinal' package was used to test the impact of metabolite level on clinical and adverse effects with CGI-I and […] […] The model with multiple predictors included the variables, as in the single timepoint analyses, as well as the data collection time (i.e., days from the baseline timepoint). To determine a possible concentration threshold of efficacy, receiver operating curve (ROC) analyses were performed based on a binary logistic regression, and the optimal cutoff was calculated by finding an optimal trade-off between sensitivity and specificity. […] The last valid datapoints were included in these analyses as deemed most appropriate. Transdiagnostic responders and responders with depression ([…].X and […].X) were considered separately.

patients = system: patients; parameters: method as in PMID 19723786, PMID 19934760; settings: cited from earlier work
[5] = Steady-state trough serum concentration (TDM, HPLC with UV detection); format: in vivo, human; settings: for Est. of Dose on square-root serum concentration, multiple linear regression / Est. of Body weight on square-root serum concentration, multiple linear regression: Model 1, last datapoint, sex, smoking; for Est. of Dose on square-root serum concentration, multiple linear regression: covariates age, body weight; for Est. of Body weight on square-root serum concentration, multiple linear regression: covariates dose, age; for Est. of Body weight on square-root serum concentration, linear mixed effect model / Est. of Dose on square-root serum concentration, linear mixed effect model: Model 2, all datapoints, multiple predictors incl. time; for β of daily dose on square-root serum concentration, linear mixed-effect model: all datapoints, dose as only fixed predictor; for steady-state serum concentration, range / mean steady-state serum concentration, mean (SD): children and adolescents n = 138, last datapoint; for steady-state serum concentration, range: FLX 10–40 mg/day; for mean steady-state serum concentration, mean (SD): FLX 10–40 mg/day (mean 19.93 mg); for β of daily dose (mg) on square-root serum concentration, simple linear regression: last datapoints
Method: The study spanned three different routine healthcare settings, including inpatient, outpatient, and day-treatment units. […] All dosing steps were recorded along with corresponding dates in the medication protocol. […] Depending on the clinical course, additional visit times were possible.
TDM analysis was conducted according to the guidelines of the Working Group on Neuropsychopharmacology and Pharmacopsychiatry (AGNP) consensus. Blood samples were collected from cubital veins into 7.5-mL monovettes without any additives or anticoagulants at a steady-state trough level. The samples were immediately analyzed (in the case of samples from Wuerzburg, Germany) or analyzed after being received by the TDM laboratory in Wuerzburg, Germany, shipped by regular mail. […] Each analytical series included internal quality control samples, and external control samples were analyzed quarterly. The laboratory responsible for the analysis is certified by a quality control program (https://www.instand-ev.de, accessed on 2 July 2023; https://www.ukw.de/psychiatrie/zuweisende-kolleginnen-und-kollegen/tdm-labor/zertifikate/, accessed on 2 July 2023). Analytical grade chemicals and solvents were procured from Sigma-Aldrich Chemie GmbH (Taufkirchen, Germany).
All statistical analyses were performed using R (R Foundation for Statistical Computing) version 4.1.1. The alpha level for all analyses was set to 0.05. To maximize the comparability of the conclusions from the dataset generated in this study, the main analyses were performed with both the last valid timepoint, as in previous relevant studies, and with all the valid timepoints, as detailed in the next paragraph. […] The model assumptions were verified by means of the semi-automated diagnostic functions in the ‘gvlma’ (Global Validation of Linear Models Assumptions) R package, including evaluation of global statistics, skewness, kurtosis, link function, and heteroscedasticity parameters and inspection of the related plots. […] In addition to the simple linear regressions, multiple linear regressions were performed with four additional hypothesized predictors: age (years), sex (male/female), body weight (kg), and smoking status (yes/no). The variance inflation factor (VIF) was evaluated as a measure of multicollinearity. Both regressions were compared based upon model fit. Second, proportional odds models using the clm (cumulative link models) function in the ‘ordinal’ R package were fitted to examine the serum concentrations as predictors of clinical effects (measured by CGI-I) and adverse effects (measured by PAERS—maximal severity). […] The analyses were repeated with an extended set of hypothesized predictors. For CGI-I, these were age, sex, psychotropic co-medication (i.e., antipsychotic and antidepressant drug), and diagnostic comorbidity (i.e., a single diagnosis versus multiple diagnoses). For PAERS, the predictors were age, sex, and psychotropic co-medication. The proportional odds assumptions in these statistics were verified with likelihood ratio tests using the nominal_test and scale_test functions, while model convergence was tested with the convergence function.
The model with multiple predictors included the variables, as in the single timepoint analyses, as well as the data collection time (i.e., days from the baseline timepoint).
To determine a possible concentration threshold of efficacy, receiver operating curve (ROC) analyses were performed based on a binary logistic regression, and the optimal cutoff was calculated by finding an optimal trade-off between sensitivity and specificity.

[6] = Responders Transdiagnostic n = 64
[7] = Responders with Depression n = 44

| SMILES | binding affinity to CYP2D6 (CYP2D6) | half-life [3] | Est. of Dose on square-root serum concentration, multiple linear regression [5] | Est. of Body weight on square-root serum concentration, multiple linear regression [5] | Est. of Body weight on square-root serum concentration, linear mixed effect model [5] | Est. of Dose on square-root serum concentration, linear mixed effect model [5] | serum concentration of responders, M+1SD (mean plus 1 standard deviation) [5, 6] | serum concentration of responders, M-1SD (mean minus 1 standard deviation) [5, 6] | serum concentration of responders, Q1 (first interquartile) [5, 6] | serum concentration of responders, Q3 (third interquartile) [5, 6] | serum concentration of responders, M+1SD (mean plus 1 standard deviation) [5, 7] | serum concentration of responders, M-1SD (mean minus 1 standard deviation) [5, 7] | serum concentration of responders, Q1 (first interquartile) [5, 7] | serum concentration of responders, Q3 (third interquartile) [5, 7] | β of daily dose on square-root serum concentration, linear mixed-effect model [5] | steady-state serum concentration, range [5] | mean steady-state serum concentration, mean (SD) [5] | β of daily dose (mg) on square-root serum concentration, simple linear regression [5] | further results |
| --- | --- | --- | --- | --- | --- | --- | --- | --- | --- | --- | --- | --- | --- | --- | --- | --- | --- | --- | --- |
| CNCCC(Oc1ccc(C(F)(F)F)cc1)c1ccccc1 (centres unmarked) [FLX, Fluoxetine] | high binding affinity | 96 to 140 h | 0.24 | −0.07 | −0.07 | 0.34 | 191.29 ng/mL | 57.97 ng/mL | 73 ng/mL | 155 ng/mL | 181.19 ng/mL | 62.51 ng/mL | 69.5 ng/mL | 156.25 ng/mL | 0.31 | 17 to 396 ng/mL | 123.66 ± 65.17 ng/mL | 0.18 | patients with PAERS max. severity 'extremely severe' (children and adolescents [1]): 1 (0.7%); patients with PAERS max. severity 'severe' (children and adolescents [1]): 2 (1.5%); patients with PAERS max. severity 'none' (no adverse effects) (children and adolescents [1]): 87 (64.9%); patients with PAERS max. severity 'none' (no adverse effects) (children and adolescents [1]; listed as fluoxetine): 64.9%; serum levels in fatal overdoses [2]: 1300 to 7000 ng/mL; inhibition of CYP2D6 (CYP2D6): potent inhibitor; absorption after oral administration [3]: almost completely absorbed; bioavailability ([3]; oral, reduced by hepatic first-pass metabolism): less than 90%; patients with CGI-I 'minimally improved' (children and adolescents [4]; n = 138, FLX 10–40 mg/day): 60 (43.5%); patients with CGI-I 'minimally worse' (children and adolescents [4]; n = 138, FLX 10–40 mg/day): 3 (2.2%); patients with CGI-I 'much worse' (children and adolescents [4]; n = 138, FLX 10–40 mg/day): 2 (1.4%); patients with CGI-I 'no change' (children and adolescents [4]; n = 138, FLX 10–40 mg/day): 8 (5.8%); patients with CGI-I 'very much worse' (children and adolescents [4]; n = 138, FLX 10–40 mg/day): 0 (0%); patients with CGI-I 'minimally improved' (children and adolescents [4]; n = 138, FLX 10–40 mg/day, listed as fluoxetine): 43.5%; patients with marked improvement (children and adolescents [4]; n = 138, much improved plus very much improved): 45.6%; patients who do not respond to pharmacologic monotherapy (patients): 40–60% |
| NCCC(Oc1ccc(C(F)(F)F)cc1)c1ccccc1 (centres unmarked) [NORFLX, Norfluoxetine] | high binding affinity | 96 to 360 h | 0.21 | −0.05 | −0.05 | 0.26 | 218.24 ng/mL | 85.28 ng/mL | 102.5 ng/mL | 186 ng/mL | 223.57 ng/mL | 78.88 ng/mL | 98.75 ng/mL | 184.25 ng/mL | 0.25 | 21 to 339 ng/mL | 144.74 ± 65.93 ng/mL | 0.19 | relationship between serum level and therapeutic effect (CGI-I) (children and adolescents [4]; ordinal regressions): no significant relationship |

— article PMC10534581 (Pharmaceutics, 2023)
